Laboratory results from article doi:10.1101/2025.02.25.640225v1 (biorxiv, 2025).

Columns and labels:
[1] = biological target: DapE (Mycobacterium tuberculosis, UniProt P9WHS9)
[2] = biological target: Rv0309 (Mycobacterium tuberculosis, UniProt O07236)
[3] = biological target: Rv1723 (Mycobacterium tuberculosis, UniProt P71981)
Chain of Rv1723 (P71981 1-415): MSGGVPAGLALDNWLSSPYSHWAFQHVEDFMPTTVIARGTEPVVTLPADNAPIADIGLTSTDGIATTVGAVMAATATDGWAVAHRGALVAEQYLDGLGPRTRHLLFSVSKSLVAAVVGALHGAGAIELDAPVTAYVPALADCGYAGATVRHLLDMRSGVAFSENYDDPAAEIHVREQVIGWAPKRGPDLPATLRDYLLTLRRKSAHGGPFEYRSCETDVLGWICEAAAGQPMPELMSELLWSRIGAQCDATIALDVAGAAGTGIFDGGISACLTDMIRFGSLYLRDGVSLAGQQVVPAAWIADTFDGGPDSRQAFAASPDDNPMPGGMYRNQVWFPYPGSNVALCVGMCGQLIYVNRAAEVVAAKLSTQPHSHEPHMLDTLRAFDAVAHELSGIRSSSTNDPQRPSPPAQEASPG

Chain of Rv0309 (O07236 19-218 limits assumed): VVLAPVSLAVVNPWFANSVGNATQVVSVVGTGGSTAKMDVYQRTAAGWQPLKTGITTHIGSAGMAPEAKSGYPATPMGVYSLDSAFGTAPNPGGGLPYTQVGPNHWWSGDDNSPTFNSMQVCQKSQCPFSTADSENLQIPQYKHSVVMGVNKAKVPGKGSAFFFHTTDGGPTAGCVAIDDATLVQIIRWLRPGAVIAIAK
Chain of DapE (P9WHS9 whole entry, looked up): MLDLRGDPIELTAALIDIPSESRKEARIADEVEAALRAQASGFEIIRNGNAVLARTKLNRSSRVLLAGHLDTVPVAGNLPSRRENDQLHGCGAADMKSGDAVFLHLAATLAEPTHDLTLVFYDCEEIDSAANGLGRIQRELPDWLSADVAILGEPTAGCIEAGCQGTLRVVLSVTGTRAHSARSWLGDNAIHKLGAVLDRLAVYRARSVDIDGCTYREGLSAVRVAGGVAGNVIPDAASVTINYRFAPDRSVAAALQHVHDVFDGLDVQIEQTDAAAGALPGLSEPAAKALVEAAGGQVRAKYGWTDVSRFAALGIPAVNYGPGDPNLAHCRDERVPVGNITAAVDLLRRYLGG

C[C@@H](O)[C@H]1C(=O)N2C(C(=O)O)=C(S[C@H]3C[C@@H](C(=O)N(C)C)N(C(=O)CCCCC[N+]4=C(/C=C/C=C/C=C5/N(C)c6ccc(S(=O)(=O)O)cc6C5(C)C)C(C)(C)c5cc(S(=O)(=O)[O-])ccc54)C3)[C@H](C)[C@H]12 [Mero-sCy5]
fluorescent gel labelling (SDS-PAGE) [1]: Mero-sCy5 labeled all enzymes

C[C@@H](O)[C@H]1C(=O)N2C(C(=O)O)=C(S[C@@H]3CN[C@H](C(=O)N(C)C)C3)[C@H](C)[C@H]12 [meropenem]
native MS (acyl-enzyme); competition of Mero-sCy5 labelling; inhibition of nitro [2]: Rv0309 partially bound meropenem

CO[C@@]1(NC(=O)Cc2cccs2)C(=O)N2C(C(=O)O)=C(COC(N)=O)CS[C@@H]21 [cefoxitin]
native MS (acyl-enzyme) [3]: binding to cefoxitin was only partial
